According to PubChem BioAssay AID256 (DTP/NCI, 2004):
Where “and” joins values, the source holds several entries; their conditions need not be identical. Equal values may be shown once. Toxic doses and inconclusive results are not listed.

Tested on: CD2F1 mice, L1210 leukemia ip, survival T/C
Experiment: NCI In Vivo Anticancer Drug Screen. Data for tumor model L1210 Leukemia (intraperitoneal) in CD2F1 (CDF1) mice
Conditions: higher = longer survival
Summary of the method: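 Ratio T/C, where T is the treated-group value and C the vehicle-dosed control value, from mice implanted with a transplantable tumor.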

## O=C1c2c(O)ccc(O)c2C(=O)c2c(NCCNCCO)ccc(NCCNCCO)c21
endpoint: mean survival time, dose: 0.13 mg/kg/injection, schedule: Q01DX005 (iv), vehicle: acid diluted with saline
  T/C: 104 % of control
endpoint: mean survival time, dose: 0.13 mg/kg/injection, schedule: Q01DX005 (iv), vehicle: clinical formulation
  T/C: 109 % of control
endpoint: mean survival time, dose: 0.13 mg/kg/injection, schedule: Q01DX009 (ip), vehicle: clinical formulation
  T/C: 276 % of control and 165 % of control
endpoint: mean survival time, dose: 0.19 mg/kg/injection, schedule: Q01DX009 (ip), vehicle: saline
  T/C: 161 % of control and 195 % of control
endpoint: mean survival time, dose: 0.25 mg/kg/injection, schedule: Q01DX005 (iv), vehicle: acid diluted with saline
  T/C: 110 % of control
endpoint: mean survival time, dose: 0.25 mg/kg/injection, schedule: Q01DX005 (iv), vehicle: saline
  T/C: 117 % of control
endpoint: mean survival time, dose: 0.25 mg/kg/injection, schedule: Q01DX009 (ip), vehicle: acid diluted with saline
  T/C: 170 % of control and 196 % of control
endpoint: mean survival time, dose: 0.25 mg/kg/injection, schedule: Q01DX009 (ip), vehicle: clinical formulation
  T/C: 404 % of control and 223 % of control
endpoint: mean survival time, dose: 0.38 mg/kg/injection, schedule: Q01DX009 (ip), vehicle: saline
  T/C: 182 % of control and 193 % of control
endpoint: mean survival time, dose: 0.5 mg/kg/injection, schedule: Q01DX005 (iv), vehicle: acid diluted with saline
  T/C: 153 % of control
endpoint: mean survival time, dose: 0.5 mg/kg/injection, schedule: Q01DX005 (iv), vehicle: clinical formulation
  T/C: 163 % of control and 159 % of control
endpoint: mean survival time, dose: 0.5 mg/kg/injection, schedule: Q01DX005 (iv), vehicle: saline
  T/C: 152 % of control
endpoint: mean survival time, dose: 0.5 mg/kg/injection, schedule: Q01DX005 (oral), vehicle: acid diluted with saline
  T/C: 102 % of control and 107 % of control
endpoint: mean survival time, dose: 0.5 mg/kg/injection, schedule: Q01DX009 (ip), vehicle: acid diluted with saline
  T/C: 150 % of control and 171 % of control and 328 % of control
endpoint: mean survival time, dose: 0.5 mg/kg/injection, schedule: Q01DX009 (ip), vehicle: clinical formulation
  T/C: 228 % of control
endpoint: mean survival time, dose: 1.0 mg/kg/injection, schedule: Q01DX005 (ip), vehicle: acid diluted with saline
  T/C: 163 % of control
endpoint: mean survival time, dose: 1.0 mg/kg/injection, schedule: Q01DX005 (iv), vehicle: acid diluted with saline
  T/C: 157 % of control and 170 % of control
endpoint: mean survival time, dose: 1.0 mg/kg/injection, schedule: Q01DX005 (iv), vehicle: clinical formulation
  T/C: 324 % of control
endpoint: mean survival time, dose: 1.0 mg/kg/injection, schedule: Q01DX005 (iv), vehicle: saline
  T/C: 180 % of control
endpoint: mean survival time, dose: 1.0 mg/kg/injection, schedule: Q01DX005 (oral), vehicle: acid diluted with saline
  T/C: 101 % of control
endpoint: mean survival time, dose: 1.0 mg/kg/injection, schedule: Q01DX009 (ip), vehicle: acid diluted with saline
  T/C: 168 % of control and 274 % of control and 307 % of control
endpoint: mean survival time, dose: 1.0 mg/kg/injection, schedule: Q01DX009 (ip), vehicle: clinical formulation
  T/C: 494 % of control
endpoint: mean survival time, dose: 1.0 mg/kg/injection, schedule: Q04DX003 (iv), vehicle: acid diluted with saline
  T/C: 151 % of control
endpoint: mean survival time, dose: 2.0 mg/kg/injection, schedule: Q01DX005 (ip), vehicle: acid diluted with saline
  T/C: 198 % of control
endpoint: mean survival time, dose: 2.0 mg/kg/injection, schedule: Q01DX005 (iv), vehicle: acid diluted with saline
  T/C: 168 % of control and 409 % of control
endpoint: mean survival time, dose: 2.0 mg/kg/injection, schedule: Q01DX005 (iv), vehicle: clinical formulation
  T/C: 171 % of control
endpoint: mean survival time, dose: 2.0 mg/kg/injection, schedule: Q01DX005 (iv), vehicle: saline
  T/C: 173 % of control
endpoint: mean survival time, dose: 2.0 mg/kg/injection, schedule: Q01DX005 (oral), vehicle: acid diluted with saline
  T/C: 102 % of control and 109 % of control
endpoint: mean survival time, dose: 2.0 mg/kg/injection, schedule: Q01DX009 (ip), vehicle: acid diluted with saline
  T/C: 246 % of control and 354 % of control
endpoint: mean survival time, dose: 2.0 mg/kg/injection, schedule: Q01DX009 (ip), vehicle: clinical formulation
  T/C: 190 % of control
endpoint: mean survival time, dose: 2.0 mg/kg/injection, schedule: Q04DX003 (ip), vehicle: acid diluted with saline
  T/C: 167 % of control and 223 % of control
endpoint: mean survival time, dose: 2.0 mg/kg/injection, schedule: Q04DX003 (iv), vehicle: acid diluted with saline
  T/C: 189 % of control
endpoint: mean survival time, dose: 3.89 mg/kg/injection, schedule: Q01DX001 (ip), vehicle: acid diluted with saline
  T/C: 190 % of control and 221 % of control
endpoint: mean survival time, dose: 3.89 mg/kg/injection, schedule: Q01DX001 (iv), vehicle: acid diluted with saline
  T/C: 163 % of control and 173 % of control
endpoint: mean survival time, dose: 4.0 mg/kg/injection, schedule: Q01DX005 (ip), vehicle: acid diluted with saline
  T/C: 256 % of control
endpoint: mean survival time, dose: 4.0 mg/kg/injection, schedule: Q01DX005 (iv), vehicle: acid diluted with saline
  T/C: 90 % of control
endpoint: mean survival time, dose: 4.0 mg/kg/injection, schedule: Q01DX005 (oral), vehicle: acid diluted with saline
  T/C: 102 % of control and 107 % of control
endpoint: mean survival time, dose: 4.0 mg/kg/injection, schedule: Q01DX009 (ip), vehicle: acid diluted with saline
  T/C: 118 % of control and 101 % of control and 102 % of control
endpoint: mean survival time, dose: 4.0 mg/kg/injection, schedule: Q04DX003 (ip), vehicle: acid diluted with saline
  T/C: 211 % of control and 230 % of control
endpoint: mean survival time, dose: 4.0 mg/kg/injection, schedule: Q04DX003 (iv), vehicle: acid diluted with saline
  T/C: 260 % of control
endpoint: mean survival time, dose: 6.48 mg/kg/injection, schedule: Q01DX001 (ip), vehicle: acid diluted with saline
  T/C: 248 % of control and 328 % of control
endpoint: mean survival time, dose: 6.48 mg/kg/injection, schedule: Q01DX001 (iv), vehicle: acid diluted with saline
  T/C: 180 % of control and 181 % of control
endpoint: mean survival time, dose: 8.0 mg/kg/injection, schedule: Q01DX005 (ip), vehicle: acid diluted with saline
  T/C: 98 % of control
endpoint: mean survival time, dose: 8.0 mg/kg/injection, schedule: Q01DX005 (oral), vehicle: acid diluted with saline
  T/C: 100 % of control and 107 % of control
endpoint: mean survival time, dose: 8.0 mg/kg/injection, schedule: Q04DX003 (ip), vehicle: acid diluted with saline
  T/C: 320 % of control
endpoint: mean survival time, dose: 8.0 mg/kg/injection, schedule: Q04DX003 (iv), vehicle: acid diluted with saline
  T/C: 163 % of control
endpoint: mean survival time, dose: 10.8 mg/kg/injection, schedule: Q01DX001 (ip), vehicle: acid diluted with saline
  T/C: 207 % of control and 309 % of control
endpoint: mean survival time, dose: 10.8 mg/kg/injection, schedule: Q01DX001 (iv), vehicle: acid diluted with saline
  T/C: 233 % of control and 261 % of control
endpoint: mean survival time, dose: 16.0 mg/kg/injection, schedule: Q01DX005 (oral), vehicle: acid diluted with saline
  T/C: 93 % of control and 109 % of control
endpoint: mean survival time, dose: 16.0 mg/kg/injection, schedule: Q04DX003 (iv), vehicle: acid diluted with saline
  T/C: 110 % of control
endpoint: mean survival time, dose: 18.0 mg/kg/injection, schedule: Q01DX001 (ip), vehicle: acid diluted with saline
  T/C: 191 % of control and 344 % of control
endpoint: mean survival time, dose: 18.0 mg/kg/injection, schedule: Q01DX001 (iv), vehicle: acid diluted with saline
  T/C: 308 % of control and 344 % of control
endpoint: mean survival time, dose: 30.0 mg/kg/injection, schedule: Q01DX001 (ip), vehicle: acid diluted with saline
  T/C: 289 % of control
endpoint: mean survival time, dose: 30.0 mg/kg/injection, schedule: Q01DX001 (iv), vehicle: acid diluted with saline
  T/C: 156 % of control
endpoint: median survival time, dose: 0.25 mg/kg/injection, schedule: Q01DX009 (ip), vehicle: acid diluted with saline
  T/C: 172 % of control
endpoint: median survival time, dose: 0.5 mg/kg/injection, schedule: Q01DX009 (ip), vehicle: acid diluted with saline
  T/C: 170 % of control and 197 % of control
endpoint: median survival time, dose: 1.0 mg/kg/injection, schedule: Q01DX009 (ip), vehicle: acid diluted with saline
  T/C: 179 % of control and 182 % of control
endpoint: median survival time, dose: 1.08 mg/kg/injection, schedule: Q04DX003 (ip), vehicle: saline
  T/C: 151 % of control
endpoint: median survival time, dose: 1.8 mg/kg/injection, schedule: Q04DX003 (ip), vehicle: saline
  T/C: 175 % of control
endpoint: median survival time, dose: 2.0 mg/kg/injection, schedule: Q01DX009 (ip), vehicle: acid diluted with saline
  T/C: 219 % of control and 370 % of control
endpoint: median survival time, dose: 2.16 mg/kg/injection, schedule: Q01DX001 (iv), vehicle: saline
  T/C: 170 % of control
endpoint: median survival time, dose: 3.6 mg/kg/injection, schedule: Q01DX001 (iv), vehicle: saline
  T/C: 170 % of control
endpoint: median survival time, dose: 5.0 mg/kg/injection, schedule: Q04DX003 (ip), vehicle: saline
  T/C: 208 % of control
endpoint: median survival time, dose: 6.0 mg/kg/injection, schedule: Q01DX001 (iv), vehicle: saline
  T/C: 196 % of control
